Data taken from a melting point compilation (Tetko et al.; mined from patent text by program, amines drawn as free bases though some values may be those of a salt).

melting point [°C]	SMILES
96 to 99	CCCc1c(OCC(O)CS(=O)(=O)c2ccc(C(=O)CCC(=O)O)cc2F)ccc(C(C)=O)c1O (stereo unspecified)
220	CC(=O)Nc1cc(Br)ccc1C(=O)O
115 to 118	O=Cc1ccc(N2CCC(O)CC2)cc1
136 to 137	CCCC(C)C(=O)Nc1cccc(O)c1 (stereo unspecified)
168 to 173	CN(C(=O)C(C)(C)c1cc(C(C)(C)C)c(O)c(C(C)(C)C)c1)C1CC(C)(C)NC(C)(C)C1
182 to 186	CCOC(=O)c1cn(C2CC2)c2c(C)c(F)c(F)c(N)c2c1=O
284 to 285	CC(=O)NN1CCN(C(=O)Cn2c(=O)sc3ccc(Cl)cc32)CC1
160 to 162	O=C(O)CC1c2cc([N+](=O)[O-])ccc2CCN1C(=O)OCc1ccccc1 (stereo unspecified)
60 to 61	O=C(O)CCCc1ccc(-c2ccccc2Cl)cc1
231 to 235	Cc1onc(-c2ccccc2)c1-c1ccc(S(=O)(=O)NC(=O)CN)cc1
42 to 43	CCCCCCCCCCCN(CC)C(=O)N(O)O
89 to 91	CCC(=C(c1ccccc1)c1ccc(OCC(O)CO)cc1)C1CCCC1 (stereo unspecified)
138	O=C(c1ccc(F)cc1)C1CCN(CCCn2c(=O)[nH]c3cccc(Cl)c32)CC1
214 to 218	CCCCOc1nc(N)c2[nH]c(=O)n(CCCNCc3cccc(C(=O)OC)c3)c2n1
115 to 117	COc1cccc(-c2ncc3n2CC(=O)N(C)C3)c1
139 to 143	CC(C)(C#N)N1CCN(c2ccc(N3CC(CCC(N)=O)OC3=O)cc2F)CC1 (stereo unspecified)
105 to 106	CCOC(=O)CCc1cc(-c2cc3ccccc3c(=O)o2)ccc1OC
97 to 99	Cc1ccc(-c2nc(Cc3cccc(CO)c3)c(C)o2)cc1
197 to 198	Cc1ccc(C(=O)NC(NC(=S)Nc2ccccc2F)C(F)(F)F)cc1 (stereo unspecified)
76 to 77	COc1ccc(C(=O)c2ccccc2N)cc1
59 to 60.5	CCOc1nccc(C(=O)OC)c1N
> 270	Cc1ccc(C)n1-c1cc(Br)c2ccc3[nH]c(=O)c(=O)[nH]c3c2c1
78.5 to 80.7	Cc1ccc(C#N)c(N2CCc3ccccc3CC2)n1

melting point [°C]	SMILES
125 to 127	CCOC(=O)c1cc(NC(=O)c2ccc(Cl)cc2Cl)ccc1Oc1cncc(Cl)c1
72 to 74	O=S(=O)(c1ccccc1)C(F)(F)C(O)c1ccco1 (stereo unspecified)
135 to 138	COc1cccc(Cn2c(-c3ccccc3)nc(Cl)c2CC(=O)O)c1
140 to 142	O=C(c1cc(O)c2occc2c1)c1ccco1
92 to 93	CCC=CCn1c(C)c(C)c2cnnc(OCc3ccccc3)c21
88 to 90	Fc1cc(CNC(=S)NCC(F)(F)F)ccc1OCC(F)(F)F
152 to 153	C=Cn1ccnc1C(O)(c1ccccc1)c1ccccc1C(C)(C)C (stereo unspecified)
70	Cc1cc(C2(c3ccc(OC(F)F)cc3)N=C(N)N(C)C2=O)ccc1F (stereo unspecified)
104 to 105	CS(=O)(=O)N(Cc1cccnc1)c1ccccc1
193	O=C(c1ccc(F)cc1)C1CCN(CCCn2c(=O)[nH]c(=O)c3ccccc32)CC1
202 to 206	Cc1ccccc1C(=O)Nc1ccc(C(=O)N2CCCC(CO)c3ccccc32)cc1 (stereo unspecified)
138 to 141	CC(COC1CCCCO1)C1CCC2C3CC=C4CC(O)CC(O)C4(C)C3CCC12C (stereo unspecified)
38 to 39	Cc1nc(C(=O)Cl)c(CCc2ccccc2)o1
280	CCOC(=O)c1cnc(N)nc1O
138 to 140	CC1=C(C(=O)OC(C)C)C(c2cccc([N+](=O)[O-])c2)N(C(=O)Oc2ccc([N+](=O)[O-])cc2)C(=O)N1 (stereo unspecified)
142 to 143	CCCN(CCC)C(=O)CNc1nc(-c2ccccc2)ncc1[N+](=O)[O-]
168 to 170	CSC[C@H](C)NC(=O)c1c(Cl)cccc1C(=O)Nc1ccc(Cn2c(C)nnc2C(F)(F)F)cc1C
53 to 55	CCOC(=O)CSc1nc(-c2ccccc2)c(-c2ccccc2)o1
137 to 140	CSc1ccc2c(=O)cc(C(=O)N[C@H]3CCN(C(=O)c4cc(C(F)(F)F)cc(C(F)(F)F)c4)[C@H](Cc4ccc(Cl)cc4)C3)oc2c1
125 to 127	COc1ccc(-c2nc(Sc3ccc(Cl)c(Cl)c3)n(C3CCCCO3)c2-c2ccc(OC)cc2)cc1 (stereo unspecified)
116 to 117	OC[C@@H](OCc1ccccc1)[C@@H](O)[C@H](O)[C@@H](CO)OCc1ccccc1
246	N#Cc1c(N2CCN(C(=O)c3cccs3)CC2)c2cc(F)ccc2n(Cc2ccccc2)c1=O
314 to 316	Cc1ccc(-n2c(-c3cc(C)ccc3C=Cc3ccccc3)ccc2-c2cc(C)ccc2C=Cc2ccccc2)cc1

melting point [°C]	SMILES
88	O=C1c2ccc(SCc3ccccc3)cc2CC1Br (stereo unspecified)
230 to 234	COc1ccc(Cl)cc1-n1c(N(C)C)nc2cc(C(F)(F)F)ccc21
89 to 90	COc1cc(C)ccc1Oc1ccc(Br)cc1C=O
107	CCOc1ccc([N+](=O)[O-])c(NCCN2CCOCC2)c1
161	c1cc2nc3c(n2nc1N1CCCC1)CCCC3
202 to 203	CC(C)n1c(C=O)c(-c2ccc(F)cc2)c(-c2ccccc2)c1C(=O)Nc1cccc(C(=O)N(C)C)c1
144 to 148	CN(c1nc2ccccc2c(=O)o1)c1ccccc1I
215 to 217	CNC(=O)c1cccc(Nc2nc(Nc3ccc4c(c3)CCCC(=O)N4C)ncc2Cl)c1
112	FC(F)(F)Sc1cn(-c2c(Cl)cc(C(F)(F)F)cc2Cl)c(Cl)n1
300 to 302	Cc1cccc2c3c([nH]c12)CCNC3=O
146 to 148	COCCOC(=O)C1=C(C)NN=C(C(=O)OC(C)C)C1c1cccc([N+](=O)[O-])c1 (stereo unspecified)
120 to 121	O=C(NCCO)c1ccc(-c2cccc3cc(Cc4cccc(C(F)(F)F)c4)sc23)cc1
135 to 136	Cc1nc(-c2ccc(C(F)(F)F)cc2)oc1CSc1ccc(CC(=O)O)cc1
113 to 115	CCOC(=O)c1c(-c2ccc(F)cc2)cc(-c2cccc3ccccc23)nc1C(C)C
46 to 47	CCN(CC)C(=O)c1ccccc1-c1ccc(OC)cc1
170 to 173	COC(=O)c1cccc2cc(C)[nH]c12
221 to 222	N#Cc1cc(-c2ccnc(Nc3cccc(Cl)c3)n2)ccn1
74 to 75	CCCCCCCCCCCCCCCCNc1ccc(C(=O)OC)cc1
162 to 164	Clc1ccc2c(c1)OCc1cccnc1C2N1CCNCC1 (stereo unspecified)
44 to 46	CCOC(=O)CC(C)(C)CC(=O)C1CC2=C(CC(C)(C)CC2)N(C2CCCCC2)C1 (stereo unspecified)
120 to 122	Cc1ccc(-c2ccc(C(=O)CBr)cc2)cc1
182 to 184	CC(C)c1nc(C(O)(C(F)(F)F)C(F)(F)F)[nH]c1-c1ccc(S(C)(=O)=O)cc1

SMILES	melting point [°C]
CC(=O)CCC(=O)N1CC1C#N (stereo unspecified)	93 to 94
COC(=O)c1cc2cc(C[C@@H](C)NC[C@H](O)c3cccc(Cl)c3)ccc2n1CC1CC1	135 to 137
CN1Cc2c(-c3nc(CN(CC4CC4)CC4CC4)no3)ncn2-c2ccccc2C1=O	170 to 174
